Measured values taken from PMC7004565, “Nucleotide inhibition of the pancreatic ATP-sensitive K^+ channel explored with patch-clamp fluorometry” (eLife, 2020).
pEC50: −log10 of the molar value.

How the values were obtained:
Kir6.2*,G334D-GFP + SUR1 = biological target: T1, Kir6.2*,G334D-GFP + SUR1 (Homo sapiens, UniProt Q14654, G334D); experiment: FRET (ANAP quenching) nucleotide binding in unroofed membranes; conditions: Hill fit
T1 construct: ANAP labelling is specific and only full-length Kir6.2 is expressed at the cell membrane; expressed in transfected cells; host or cells: HEK-293T
Description: (§1) To measure nucleotide binding, cells transfected with Kir6.2*-GFP + SUR1 were briefly sonicated, leaving behind unroofed plasma membrane fragments ([Heuser, 2000]; [Zagotta et al., 2016]; [Puljung et al., 2019]) containing ANAP-labelled KATP channels with the intracellular nucleotide-binding sites exposed to the bath solution. The sample was excited with a 385 nm LED and emitted fluorescence from the membrane fragments was passed through a spectrometer, allowing us to separate ANAP, GFP, and TNP-ATP fluorescence by peak wavelength (Figure 1E,F). As expected from FRET, increasing the concentration of TNP-ATP caused a decrement in the ANAP peak at 472 nm and a concomitant increase in the TNP-ATP peak at 561 nm (Figure 1F). We used the quenching of the ANAP peak as a direct measure of TNP-ATP binding as this signal was specific to KATP. In contrast, the peak TNP-ATP fluorescence may include contributions from both specific and non-specific nucleotide binding, as well as direct excitation of TNP-ATP in solution by the 385 nm excitation light. Due to the sharp cut-off of the GFP emission spectrum at shorter wavelengths, our measurements of peak ANAP fluorescence were unaffected by the presence of the GFP tag on Kir6.2. […]
(§2) Epifluorescence imaging and spectroscopy were performed using a Nikon Eclipse TE2000-U microscope with a 60x water immersion objective (Plan Apo VC, NA = 1.2, Nikon; Kingston upon Thames, UK) or a 100x oil immersion objective (Nikon, Apo TIRF, NA = 1.49). […] Fluorescence spectra were collected by exciting ANAP as above but using a 400 nm long-pass emission filter (ThorLabs), then passing emitted light through an IsoPlane 160 Spectrometer (Princeton Instruments; Trenton, NJ) with a 300 grooves mm^-1 grating. […]
(§3) Unroofed membranes were prepared as described previously ([Heuser, 2000]; [Zagotta et al., 2016]; [Puljung et al., 2019]). […] Unroofed membrane fragments were nearly invisible in bright-field images and identified by their GFP and ANAP fluorescence. […]

Kir6.2-GFP + SUR1 = Kir6.2-GFP + SUR1 (Homo sapiens, UniProt Q14654); experiment: as above; design: full length, fully ANAP-labelled Kir6.2 protein was produced and successfully trafficked to the membrane in the presence of SUR1; expressed in transfected cells; host or cells: HEK-293T; conditions: Hill fit
Description: as §1, §2, §3

[1] = fraction, read-out: Emax fluorescence quenching

T1 sequence (Q14654 whole entry G334D): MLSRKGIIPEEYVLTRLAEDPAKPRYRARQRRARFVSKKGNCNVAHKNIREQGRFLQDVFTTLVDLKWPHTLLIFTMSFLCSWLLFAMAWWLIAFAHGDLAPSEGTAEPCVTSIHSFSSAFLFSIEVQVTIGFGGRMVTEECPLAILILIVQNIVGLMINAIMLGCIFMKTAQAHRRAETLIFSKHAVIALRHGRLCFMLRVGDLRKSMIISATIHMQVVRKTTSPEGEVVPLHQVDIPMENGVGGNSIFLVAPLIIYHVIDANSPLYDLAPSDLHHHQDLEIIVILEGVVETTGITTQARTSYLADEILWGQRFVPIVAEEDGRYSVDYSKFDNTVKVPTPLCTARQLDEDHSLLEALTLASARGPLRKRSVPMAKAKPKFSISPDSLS
T1 sequence (Q09428 whole entry partner): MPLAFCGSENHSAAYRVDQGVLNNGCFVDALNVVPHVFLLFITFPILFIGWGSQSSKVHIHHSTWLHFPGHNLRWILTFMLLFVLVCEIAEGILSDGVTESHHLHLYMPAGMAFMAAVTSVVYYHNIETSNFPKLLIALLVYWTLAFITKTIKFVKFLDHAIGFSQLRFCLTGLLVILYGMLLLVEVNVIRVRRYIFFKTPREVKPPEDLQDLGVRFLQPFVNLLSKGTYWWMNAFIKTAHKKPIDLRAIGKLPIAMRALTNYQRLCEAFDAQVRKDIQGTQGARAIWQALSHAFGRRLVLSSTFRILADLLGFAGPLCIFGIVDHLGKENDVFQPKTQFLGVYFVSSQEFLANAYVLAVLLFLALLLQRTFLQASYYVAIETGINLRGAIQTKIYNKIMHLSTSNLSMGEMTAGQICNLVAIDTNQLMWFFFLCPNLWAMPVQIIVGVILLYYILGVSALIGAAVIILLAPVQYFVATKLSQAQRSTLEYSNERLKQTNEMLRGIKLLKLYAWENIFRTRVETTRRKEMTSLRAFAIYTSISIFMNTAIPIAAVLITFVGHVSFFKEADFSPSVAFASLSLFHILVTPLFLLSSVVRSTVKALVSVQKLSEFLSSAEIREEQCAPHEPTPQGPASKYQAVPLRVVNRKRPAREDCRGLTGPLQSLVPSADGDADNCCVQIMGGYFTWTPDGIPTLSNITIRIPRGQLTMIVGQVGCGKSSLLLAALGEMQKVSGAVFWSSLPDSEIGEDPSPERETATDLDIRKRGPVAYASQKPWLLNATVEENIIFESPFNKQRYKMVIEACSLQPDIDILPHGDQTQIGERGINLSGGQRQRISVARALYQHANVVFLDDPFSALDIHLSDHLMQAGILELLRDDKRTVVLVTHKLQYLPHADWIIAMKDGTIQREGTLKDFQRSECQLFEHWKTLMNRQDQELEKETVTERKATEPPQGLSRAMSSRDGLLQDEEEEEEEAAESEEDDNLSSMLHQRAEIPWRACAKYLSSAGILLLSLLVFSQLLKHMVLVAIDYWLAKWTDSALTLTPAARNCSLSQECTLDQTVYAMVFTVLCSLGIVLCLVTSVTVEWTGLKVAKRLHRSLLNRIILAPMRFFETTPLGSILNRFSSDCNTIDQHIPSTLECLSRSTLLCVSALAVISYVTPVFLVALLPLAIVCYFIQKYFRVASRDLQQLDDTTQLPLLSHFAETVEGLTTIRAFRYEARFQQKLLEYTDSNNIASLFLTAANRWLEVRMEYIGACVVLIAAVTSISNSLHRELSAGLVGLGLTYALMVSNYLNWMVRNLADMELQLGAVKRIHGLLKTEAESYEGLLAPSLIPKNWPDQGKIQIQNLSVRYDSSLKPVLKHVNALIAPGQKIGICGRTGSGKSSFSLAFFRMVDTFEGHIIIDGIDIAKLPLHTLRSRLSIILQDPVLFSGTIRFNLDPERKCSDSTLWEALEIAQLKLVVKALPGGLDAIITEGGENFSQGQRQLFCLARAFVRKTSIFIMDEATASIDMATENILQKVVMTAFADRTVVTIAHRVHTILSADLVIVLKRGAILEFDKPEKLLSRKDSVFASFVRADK
Kir6.2-GFP + SUR1, sequence (Q14654 whole entry): as the sequence (Q14654 whole entry G334D) above, with D334G counted along it
Kir6.2-GFP + SUR1, sequence (Q09428 whole entry partner): as the sequence (Q09428 whole entry partner) above

SMILES: Nc1ncnc2c1ncn2[C@@H]1O[C@H](COP(=O)(O)OP(=O)(O)OP(=O)(O)O)[C@H]2OC3(O[C@H]21)C([N+](=O)[O-])=CC(=[N+]([O-])[O-])C=C3[N+](=O)[O-] (stereo partly drawn) [TNP-ATP, trinitrophenyl-ATP]
- h (Hill coefficient) fluorescence quenching (Kir6.2*,G334D-GFP + SUR1): 2.63
- Emax (Kir6.2*,G334D-GFP + SUR1; [1]): 8%
- pEC50 (Kir6.2*,G334D-GFP + SUR1; n = 9, read-out: EC50 fluorescence quenching): 3.31
- h (Hill coefficient) fluorescence quenching (Kir6.2-GFP + SUR1): 0.82
- Emax (Kir6.2-GFP + SUR1; [1]): 93%
- pEC50 (Kir6.2-GFP + SUR1; n = 18, read-out: EC50 fluorescence quenching): 4.59
